Data on 1 compound can be found in patent EP2532368A1, “"Composition for oral delivery of biologically-active substances"” (Peluso, Gianfranco, priority 2011, dated 2012).

The experiment relates to DSS-induced colitis. As to the kind of experiment: DSS-induced colitis in mice. The class given is in vivo, C57BL/6 mice. The conditions noted are these: 3% DSS in water, daily gavage for 7 days.

For the compound `Nc1ccc(O)c(C(=O)O)c1` [5-ASA, 5-Aminosalicylic acid], the weight loss entry was “does not reduce the severity of weight loss”. Besides, under “colon”, the “Intestinal myeloperoxidase (MPO) activity” value is listed as “has no effect on the basal MPO levels”.
